Laboratory results as given in patent US8465983B1, “Detection and delivery systems utilizing supported lipid bilayers” (priority 2005, dated 2013).

Experiments:
[1] = tested on: DMPG lipid bilayer supported on MS-PPE; assay: Superquenching flow cytometric assay for disruption of DMPG lipid bilayer supported on MS-PPE; type: biochemical; details: for quenching of the MS-PPE after addition of peptide / association constant with DMPG (reciprocal of the point of half saturation): 10 μM AQS; for quenching of the MS-PPE after addition of peptide: sMLT 3.8 μM, nMLT 1.6 μM, TRITON X-100 0.25% (w/v); for association constant with DMPG (reciprocal of the point of half saturation): binding curves, flow cytometry
Description: Lipid bilayers were disrupted by adding TRITON X-100 detergent to the bead suspension to a final concentration of 0.25% (w/v).
Bead suspensions of 2.5×10^5 DMPG-coated MS-PPE in 200 μL of PBS were analyzed using a FACScan flow cytometer (Becton-Dickinson, Sunnyvale, Calif.) with excitation at 488 nm. Fluorescence signals were acquired on FL-1 channel (525 nm) using log amplification and analyzed with the CellQuest software. Kinetic analysis of disruption of supported lipid bilayer by melittin was performed by acquiring real-time data with continuous mixing of samples (10^6 MS-PPE in 800 μl of PBS) using a magnetic stirrer. The raw data were analyzed using IDL Query software developed by Bruce Edwards (Cancer Center, University of New Mexico, Albuquerque, N. Mex.).
Because an anionic lipid was used to form a lipid bilayer around MS-PPE, it was expected that MLT will disrupt the DMPG lipid bilayer by such a detergent-like action. This was tested by adding 10 μM AQS to DMPG-coated MS-PPE followed by treatment with one of the following: TRITON X-100 detergent, synthetic MLT (sMLT), or natural MLT (nMLT) and immediately reading the fluorescence by flow cytometry. […] These histograms resemble the ones reported previously for MS-PPE, without a lipid coating, in absence and in presence of AQS.
From FIG. 18, the association constant (corresponding to the reciprocal of the point of half saturation) for nMLT and sMLT with DMPG were 5×10^6 M^−1 and 1.7×10^6 M^−1, respectively. […] Lower concentrations of nMLT, in comparison to sMLT, were required to disrupt the DMPG lipid bilayer. This might be attributed to the fact that nMLT contains some phospholipase A2 (PLA2) as a contaminant. PLA2 has a high affinity for anionic phospholipids, with an association constant of 0.5×10^10 M^−1 (Kim et al., Anal. Chem. 250, 109-116 (1997)), which is about 3000 fold higher than that of MLT. Although PLA2 activity requires calcium, which is not present in the experimental system, it has been reported that even upon addition of EDTA to natural MLT, PLA2 maintains its activity, probably due to formation of a tight complex with calcium with PLA2 (Dempsey, C. E. Biochim. Biophys. Acta 1990, 1031, 143-161).
The kinetics of disruption of supported lipid bilayer by MLT were monitored by measuring real-time changes in fluorescence intensity by flow cytometry (FIG. 19). Suspensions of 10^6 DMPG-coated MS-PPE in 800 μL of PBS were treated with AQS at a final concentration of 10 μM, then with either sMLT, TRITON X-100 detergent, or no treatment. […] Treatment with sMLT in the absence of AQS led to an increase in normalized fluorescence (FIG. 19, trace A). This can be attributed to disruption of the lipid bilayer by sMLT, and is consistent with a reversal of the slight quenching of fluorescence caused by the formation of a DMPG lipid bilayer over MS-PPE. Addition of AQS alone to DMPG-coated MS-PPE (FIG. 19, trace C) led to a 20% reduction in fluorescence as reported earlier. Addition of TRITON X-100 detergent to DMPG-coated MS-PPE after the addition of AQS (first dip in trace E, FIG. 19) caused immediate decrease in fluorescence to ˜10% of its original value (second dip in trace E, FIG. 19). In contrast, addition of sMLT, after the addition of AQS, (FIG. 19, trace D) led to a gradual reduction of fluorescence intensity to ˜20% of the original value. Although MLT forms dimers at high concentrations (Dempsey, C. E. Biochim. Biophys. Acta 1990, 1031, 143-161), it is monomeric at the concentrations used in this study. On the other hand, TRITON X-100 detergent forms micelles at the concentration used in this study.

[2] = Lipid bilayers on MS-PPE as barriers to superquenching by AQS, flow cytometry; details: 10 μM AQS
Description: FIG. 15 graphically illustrates flow cytometric evaluations of different lipids that involved formation of supported lipid bilayers on MS-PPE for the purpose of forming a barrier to quenching by AQS. Lipids tested were 2 mM DPPC, 1 mM egg-PC, and 2 mM DMPG. Fluorescence was normalized to that of MS-PPE without lipids and in absence of AQS. −AQS and +AQS refer to absence and presence of 10 μM AQS. The errors bars represent SD of means of normalized histograms obtained for triplicates.
Small unilamellar vesicles (SUVs) were prepared using a 2 mM solution of DPPC, 1 mM egg-PC, or 2 mM DMPG in chloroform. The lipid was dried by nitrogen gas followed by vacuum. The dried lipid was resuspended in phosphate buffer saline (PBS), pH 7.4, and incubated at 37° C. for 10 min, then sonicated to optical clarity in a sonication bath (Branson Cleaning Equipment Co., Shelton, Conn.).
Lipid bilayers were assembled on microspheres as previously described (Buranda et al. Langmuir 19:1654-1663 (2003); Bayerl & Bloom, Biophys J 58:357-362 (1990)). […]
Bead suspensions of 2.5×10^5 PPE-coated microspheres in 200 μL PBS were analyzed using a FACScan flow cytometer (Becton-Dickinson, Sunnyvale, Calif.) with excitation at 488 nm. Fluorescence signals were acquired on the FL-1 channel (525 nm) using log amplification and analyzed with the CellQuest software.

[3] = tested on: supported lipid bilayer surrounding a porous bead that contains fluorescein; assay: Kinetics of supported lipid bilayer disruption by α-toxin, pH gradient, flow cytometry; type: biochemical
Text: FIGS. 4A-B illustrates the effects of alpha-toxin on lipid bilayer integrity. FIG. 4A graphically illustrates dose-dependent release of fluorescent dye from a lipid bilayer coated microbead after introduction of different concentrations of alpha-toxin, a membrane-associated pore-forming protein from Staphylococcus aureus. The normalized fluorescence intensity (at 520 nm) of the supernatant is plotted versus time for EPC-coated, fluorescein filled porous beads when using different concentrations of α-toxin added. 10% Triton was added after 150 min. FIG. 4B illustrates the kinetics of disrupting a supported lipid bilayer by α-toxin as monitored by recording changes in fluorescence intensity every 2 minutes by flow cytometry. The lipid bilayer surrounded a porous bead that contains a pH-reactive molecule (fluorescein), and the pH outside the beads was adjusted to 11.0, whereas inside the beads the pH was 2.6. As illustrated, increasing amounts of c′-toxin increases the fluorescence emitted from within the beads.
In another experiment a lipid bilayer surrounding a porous bead that contains a pH-reactive molecule (fluorescein) was exposed to α-toxin. The pH outside the beads was adjusted to 11.0, whereas inside the beads the pH was 2.6. The kinetics of disruption of supported lipid bilayer by α-toxin were monitored by recording changes in fluorescence intensity every 2 minutes by flow cytometry. For the first 8 minutes there was no significant change in fluorescence intensity (FIG. 4B). However, after 8 minutes there was a gradual increase in fluorescence intensity (FIG. 4B) resulting from insertion of α-toxin into the supported lipid bilayer thus forming channels permeable to hydrogen cations and hydroxyl ions, which reduces the difference in the pH outside and inside the microspheres. […] This can be attributed to insertion of many α-toxin channels at this high concentration leading to disruption of the lipid bilayer and immediate equilibration of the pH inside and outside the porous microspheres.

[4] = tested on: EPC lipid bilayer on porous silica beads; assay: Suspension study: disruption of EPC bilayers on fluorescein-containing porous silica beads, release of dye into supernatant; type: biochemical; details: all three concentrations 15, 45 and 250 μg/mL
Description: Lipid coatings on beads were disrupted using 10% TRITON X-100 detergent. Each sample in micro-centrifuge tubes contained 5 mg of lipid bilayer coated, fluorescein entrapped beads in 200 μL of Tris buffer. Samples were centrifuged and 100 μL aliquots of supernatant were mixed with either 100 μL of Tris buffer or 100 μL of 10% TRITON X-100 detergent in separate centrifuge tubes. The fluorescence intensity of each mixture was immediately (time=0) recorded. Each mixture was mixed with its respective bead sample in centrifuge tube and incubated at 25° C. in the dark. After 30 min, samples were centrifuged and fluorescent intensity of the supernatants was measured. Beads were resuspended in their respective supernatants. Fluorescence intensity was again measured at 90 and 150 min.
(§1) Experimental procedures were similar to the TRITON X-100 detergent based analysis. For experiments with α-toxin, three different toxin concentrations: 15, 45 and 250 μg/mL were used at 37° C. and 25° C. Beads coated with EPC were used. In the experiments with melittin, 220 μM melittin was used with beads coated with either 100% EPC, 10:90 (molar ratio) mixture of DMPG and EPC or an 80:20 mixture of DMPG and DMPC. All melittin experiments were conducted at 25° C.
Previous suspension studies on disruption of lipid bilayers have been performed with small unilamellar vesicles where disruption of the lipid bilayer membranes was detected by monitoring the unquenching of a highly concentrated, encapsulated dye. In the present work disruption was monitored via release of fluorescein dye from porous beads, by measuring the increase in fluorescence intensity of the supernatant at 520 nm. Beads were first suspended in Tris buffer containing the disruptor. After selected time periods, beads were sedimented by centrifuging and a portion of the supernatant was taken for the measurement. The measured portion was added back to the bead sample to permit continuous monitoring. The scattering effect that was present in vesicle based studies was minimized by measuring only the supernatant after centrifugation of the beads.

[5] = tested on: 90:10 (molar ratio) EPC and DMPG bilayer on porous silica beads; assay: Suspension study: melittin on EPC/DMPG 90:10 bilayers on fluorescein-containing porous beads; type: biochemical; details: highly concentrated melittin, 25° C.
Description: as §1
The interaction of highly concentrated melittin solutions was examined with membranes supported on fluorescein containing porous beads, where the membranes contained 100% EPC or a 90:10 mixture (molar ratio) of EPC and DMPG (a negatively charged lipid). […] In the absence of peptide, the amount of dye leakage from the EPC/DMPG beads was similar to that for EPC coated beads.

[6] = tested on: 80:20 (molar ratio) DMPG and DMPC bilayer on porous silica beads; assay: Suspension study: melittin on DMPG/DMPC 80:20 bilayers on fluorescein-containing porous beads; type: biochemical; details: 220 μM melittin (FIG. 6 legend prints 220 pM), 25° C.
Description: as §1
In view of the results shown in FIG. 5, the effects of melittin on other mixtures of lipids were examined. […] A 80:20 mixture (molar ratio) of DMPG and DMPC was used to form the lipid bilayers used in this experiment. The increase in fluorescence intensity due to the membrane-melittin interaction, which results in the release of dye from porous beads was about 10 fold. Although this release was not as high as that observed when using TRITON X-100 detergent, it is notable in comparison to the release with α-toxin.

## sMLT: synthetic melittin obtained from Sigma
[1]
  quenching of the MS-PPE after addition of peptide: comparable to that occurring on addition of TRITON X-100 detergent
  association constant with DMPG (reciprocal of the point of half saturation): 1.7e+06 M⁻¹
[1]; 10^6 DMPG-coated MS-PPE in 800 μL PBS, after 10 μM AQS
  fluorescence intensity after addition, % of original value (real-time kinetics): ~20%

## CCCCCCCCCCCCCCCC(=O)OC[C@H](COP(=O)([O-])OCC[N+](C)(C)C)OC(=O)CCCCCCCCCCCCCCC [DPPC, 1,2-dipalmitoyl-sn-glycero-3-phosphatidylcholine]
[2]
  fluorescence with quencher relative to MS-PPE and quencher without the lipid: ~10 fold
  reduction (quenching) of polymer fluorescence of lipid-coated MS-PPE on addition of AQS: ~40%

## nMLT: natural melittin from Sigma, contains some phospholipase A2 as a contaminant
[1]
  quenching of the MS-PPE after addition of peptide: comparable to that occurring on addition of TRITON X-100 detergent
  association constant with DMPG (reciprocal of the point of half saturation): 5e+06 M⁻¹

## α-toxin: membrane active pore-forming protein secreted by Staphylococcus aureus, ˜33 kDa
[3]; pH 11.0 outside, pH 2.6 inside beads
  concentration at which increase in fluorescence intensity reached its maximum: 15 µg/mL
[3]; pH 11.0 outside, pH 2.6 inside beads, read every 2 minutes
  time without significant change in fluorescence intensity before gradual increase: 8 min
[3]; α-toxin 45 μg/mL
  change in fluorescence intensity: did not cause a change in fluorescence intensity different from the baseline
[4]; 25° C.
  increase in fluorescence intensity after 150 min: about 3 fold
[4]; 37° C.
  increase in fluorescence intensity after 150 min: about 6.5 fold

## CC[C@H](C)[C@H](NC(=O)CN)C(=O)NCC(=O)N[C@@H](C)C(=O)N[C@H](C(=O)N[C@@H](CC(C)C)C(=O)N[C@@H](CCCCN)C(=O)N[C@H](C(=O)N[C@@H](CC(C)C)C(=O)N[C@H](C(=O)N[C@H](C(=O)NCC(=O)N[C@@H](CC(C)C)C(=O)N1CCC[C@H]1C(=O)N[C@@H](C)C(=O)N[C@@H](CC(C)C)C(=O)N[C@H](C(=O)N[C@@H](CO)C(=O)N[C@@H](Cc1c[nH]c2ccccc12)C(=O)N[C@H](C(=O)N[C@@H](CCCCN)C(=O)N[C@@H](CCCNC(=N)N)C(=O)N[C@@H](CCCCN)C(=O)N[C@@H](CCCNC(=N)N)C(=O)N[C@@H](CCC(N)=O)C(=O)N[C@@H](CCC(N)=O)C(N)=O)[C@@H](C)CC)[C@@H](C)CC)[C@@H](C)O)[C@@H](C)O)C(C)C)C(C)C [melittin]
[5]
  release of dye from EPC/DMPG coated beads compared with 100% EPC coated beads: slightly higher
[6]
  increase in fluorescence intensity due to release of dye: about 10 fold
